Key:
[1] = test system: brain field potentials (EEG power spectrum); details: rats, cited from earlier work; for change of EEG theta, alpha1,2 and beta1,2 power: α2-adrenoceptor agonists, Dimpfel and Schober, 2001; for change of EEG alpha1,2 and beta1,2 power: general anaesthetics, Dimpfel, 2003
[2] = test system: electrical activity of the human brain; experiment: Quantitative EEG (CATEEM) during and after 24 h intravenous infusion in healthy male volunteers, placebo-controlled crossover; assay type: in vivo; details: 300 mg/kg iv over 24 h
Description: The present inventors have now studied the effect of ketosis, in the exemplified case induced by administration of sodium salt of (R)-3-hydroxybutyrate (herein referred to as KTX 0101) as a single intravenous infusion of increasing dose and duration to 3 groups (Parts A, B and C) with 3 cohorts of 3 subjects each in Part A, and 1 cohort in each of Parts B (n=3) and C (n=8). Parts A and B were a partial crossover design and Part C was a crossover design. For details see protocol.
A 17-electrode EEG was recorded pre-dose and at 6, 12 and 24 h during the infusion and 1 and 24 hours following the end of drug administration. Recordings were performed under two physiological conditions, namely with 5 minutes eyes open and eyes closed, respectively. KTX 0101 was administered intravenously at a dose of 300 mg/kg given over 24 hours to 1 cohort (n=8) in a double blind placebo controlled crossover design (Part C of the study).
Single rising doses of KTX 0101 or placebo were administered to groups of healthy male volunteers according to a pre-specified dose escalation schedule (see main report). Incremental doses were administered in a stepwise manner proceeding to each higher dose only if the drug was well tolerated and the criteria for stopping dosing had not been met. The last two cohorts obtained the highest doses of 300 mg/kg and consisted of enough volunteers to justify a preliminary evaluation of recorded EEG data in order to obtain information on the pharmacodynamic effects of the potential drug. After recording of pre dose values the infusion was started and continued for 24 hours. EEG recordings took place during the infusion (6, 12 and 24 h) and 1 and 24 h after the end of the infusion. Each recording period was performed under 5 minutes eyes open and 5 minutes of eyes closed condition.
The EEG was recorded bipolarly from 17 surface electrodes according to the international 10/20 system with Cz as a physical reference electrode (Computer aided topographical electro-encephalo-metry: CATEEM® from MediSyst GmbH, 35440 Linden, Germany), using an electrocap. The raw signals were amplified, digitized (2048 Hz/12 bit) and transmitted via fiber optical devices to the computer. […] ECG and EOG were recorded in one channel each in order to facilitate detection of those signals superposing on to the EEG. […] The amount of rejected data was determined automatically and given in percent of total recording time. […] The data was recorded under two physiological conditions over a period of 5 minutes each (eyes open and eyes closed).
Using a Lagrange interpolation, signals from 82 additional virtual electrodes were calculated to provide high resolution topographical maps. […] Data were analysed from 0.86 to 35 Hz using the CATEEM® software. […]

| Compound | change of EEG theta, alpha1,2 and beta1,2 power [1] | change of EEG alpha1,2 and beta1,2 power [1] | also measured |
| --- | --- | --- | --- |
| COc1nc(C)nc(Cl)c1N=C1NCCN1 [maxonidine] | Combined increases in theta, alpha1,2 and beta1,2 power | – | – |
| FC(F)OC(F)C(F)(F)F (stereo not shown) [desflurane] | – | combined increases in alpha1,2 and beta1,2 power | – |
| Cc1cccc(C(C)c2c[nH]cn2)c1C (stereo not shown) [metedomidine] | Combined increases in theta, alpha1,2 and beta1,2 power | – | – |
| N=C(N)NC(=O)Cc1c(Cl)cccc1Cl [guanfacine] | Combined increases in theta, alpha1,2 and beta1,2 power | – | – |
| FC(F)OC(F)(F)C(F)Cl (stereo not shown) [enflurane] | – | combined increases in alpha1,2 and beta1,2 power | – |
| Clc1cccc(Cl)c1N=C1NCCN1 [clonidine] | Combined increases in theta, alpha1,2 and beta1,2 power | – | – |
| FC(F)(F)C(Cl)Br (stereo not shown) [halothane] | – | combined increases in alpha1,2 and beta1,2 power | – |
| CC(Oc1c(Cl)cccc1Cl)C1=NCCN1 (single isomer, unassigned; (-)) [(-)lofexidine] | Combined increases in theta, alpha1,2 and beta1,2 power | – | – |
| isoflurothane | – | combined increases in alpha1,2 and beta1,2 power | – |
| C[C@@H](O)CC(=O)[O-].[Na+] [KTX 0101, sodium salt of (R)-3-hydroxybutyrate] | – | – | time after end of infusion up to which EEG changes could be traced [2]: up to 24 hours; change of EEG electrical power relative to pre-drug values ([2]; averaged over 15 electrode positions, during and after infusion): increases of electrical power were observed, especially with respect to theta, alpha and beta power; change of EEG electrical power relative to pre-dose values ([2]; eyes closed, centro-parietal regions, theta, alpha1, alpha2 and beta 1 ranges): increases of electrical power could be observed for the 6 h time period, less for the 12 h period but consistently thereafter; change of EEG electrical power relative to pre-dose values ([2]; eyes open, single electrode positions (FIG. 1)): an increase of delta and theta power as well as of alpha power is observed |
